# Assay results as given in patent US11299472B2, “Fumarate salt of (R)-3-(1-(2,3-dichloro-4-(pyrazin-2-yl)phenyl)-2,2,2- trifluoroethyl)-1-methyl-1-(1-methylpiperidin-4-yl) urea, methods of preparation, and uses thereof” (Helsinn Healthcare SA, priority 2017, dated 2022).
# Read-outs that look alike come from different tables or passages of the source.
# Key:
# [1] = Dog pharmacokinetic study, single oral HM04 fumarate salt 3, 10, 30 mg/kg (Example 10); assay type: in vivo, male Beagle dogs; conditions: for concentration at 0.5 h: 0.50 hours
# Description: The pharmacokinetics of HM04 in plasma after single oral administration of HM04 fumarate salt to 6-week old male Sprague Dawley rats and male Beagle dogs (1-5 years of age) was investigated. Test formulations of 0.6 mg/mL, 2 mg/mL, and 6 mg/mL HM04 fumarate salt (based on weight of the free base) were prepared in 5% glucose solution. Doses of 3, 10, and 30 mg/kg HM04 fumarate salt (based on weight of the free base) were administered by gastric gavage as a 5 mL/kg dose volume of each of the three test formulations. Four animals were in each dose group. The formulation was administered to the dogs in fasting conditions with food provided three hours post-dosing.
# Oral absolute bioavailability at 3 mg/kg was calculated from the ratio of individual oral AUC∞ to the individual AUC∞ values determined following intravenous administration of 3 mg/kg HM04 fumarate salt (based on weight of the free base) to the same four male Beagle dogs.
# Oral absolute bioavailability at 10 mg/kg was calculated from the ratio of individual oral AUC∞ to the individual AUC∞ values determined following intravenous administration of 10 mg/kg HM04 fumarate salt (based on weight of the free base) to the same four male Beagle dogs.
# Plasma HM04 concentrations were measured by LC-MS/MS following protein precipitation in the 96-well plate format. At the time of analysis samples were thawed out at ambient temperature. Aliquots of 25 μL of rat or dog K3EDTA plasma were spiked with 300 μL of internal standard (25 ng/mL of HM04-d8 in acetonitrile). After gentle vortex mixing for 5 minutes and centrifugation at 2010 g for 15 minutes at 4° C., an aliquot of 100 μL of the organic phase was transferred into a fresh 96-well polypropylene plate, using a P3-Evolution robotic system (Perkin Elmer). Following dilution with 100 μL of […] ammonium formate pH 3.5, an aliquot of 10 μL was injected into the LC-MS/MS system.
# [2] = Dog pharmacokinetic study, HM04 free base vs HM04 fumarate salt (Example 9); assay type: in vivo, male Beagle dogs; conditions: for HM04 plasma concentration: 2 mg/kg oral, mean ± S.D., n=3
# [3] = male, Beagle, plasma, 10 mg/kg oral, n=4
# [4] = male, Beagle, plasma, 30 mg/kg oral, n=4
# [5] = oral dose range of 3 to 30 mg/kg
structure (smiles),measurement,setting,value
"CN1CCC(N(C)C(=O)N[C@H](c2ccc(-c3cnccn3)c(Cl)c2Cl)C(F)(F)F)CC1.O=C(O)/C=C/C(=O)O [HM04 fumarate salt, (R)-3-(1-(2,3-dichloro-4-(pyrazin-2-yl)phenyl)-2,2,2-trifluoroethyl)-1-methyl-1-(1-methylpiperidin-4-yl)urea fumarate salt]",half-life,"[1]; male, Beagle, plasma, 3 mg/kg oral, n=4, read-out: t1/2 (converted)",4.02 ± 1.21 h
same,bioavailability,"[1]; male, Beagle, plasma, 10 mg/kg oral vs 10 mg/kg intravenous, individual AUC∞ ratios",68 ± 10%
same,concentration at 0 h,"[1]; male, Beagle, plasma, 10 mg/kg oral, 0 hours (pre-dose), n=4",2.15 ± 4.3 ng/mL
same,concentration at 0.25 h,[1]; [3],307 ± 246 ng/mL
same,concentration at 0.5 h,[1]; [3],862 ± 460 ng/mL
same,concentration at 1 h,[1]; [3],1510 ± 435 ng/mL
same,concentration at 2 h,[1]; [3],1170 ± 260 ng/mL
same,concentration at 4 h,[1]; [3],789 ± 150 ng/mL
same,concentration at 8 h,[1]; [3],468 ± 171 ng/mL
same,concentration at 24 h,[1]; [3],65.1 ± 65.2 ng/mL
same,AUC(0-t),[1]; [3],10900 ± 3500 ng·h/mL
same,Cmax,[1]; [3],1510 ± 435 ng/mL
same,Tmax,[1]; [3],1 h
same,half-life,"[1]; male, Beagle, plasma, 10 mg/kg oral, n=4, read-out: t1/2 (converted)",4.93 ± 1.31 h
same,concentration at 0.25 h,[1]; [4],1940 ± 1330 ng/mL
same,concentration at 0.5 h,[1]; [4],3730 ± 1560 ng/mL
same,concentration at 1 h,[1]; [4],5720 ± 1200 ng/mL
same,concentration at 2 h,[1]; [4],5030 ± 710 ng/mL
same,concentration at 4 h,[1]; [4],3780 ± 577 ng/mL
same,concentration at 8 h,[1]; [4],2440 ± 176 ng/mL
same,concentration at 24 h,[1]; [4],560 ± 147 ng/mL
same,AUC(0-t),[1]; [4],54000 ± 6010 ng·h/mL
same,Cmax,[1]; [4],5720 ± 1200 ng/mL
same,Tmax,[1]; [4],1 h
same,half-life,"[1]; male, Beagle, plasma, 30 mg/kg oral, n=4, read-out: t1/2 (converted)",6.97 ± 0.613 h
same,half-life,"[1]; male, Beagle, plasma, intravenous, range, read-out: half-life after intravenous administration",4 to 5 h
same,AUC(0-inf),"[1]; male, Beagle, plasma, iv, 3 mg/kg, Dog 1, 3 mg/kg intravenous, read-out: individual IV AUC∞",6190 ng·h/mL
same,AUC(0-inf),"[1]; male, Beagle, plasma, iv, 3 mg/kg, Dog 2, 3 mg/kg intravenous, read-out: individual IV AUC∞",3100 ng·h/mL
same,AUC(0-inf),"[1]; male, Beagle, plasma, iv, 3 mg/kg, Dog 3, 3 mg/kg intravenous, read-out: individual IV AUC∞",3210 ng·h/mL
same,AUC(0-inf),"[1]; male, Beagle, plasma, iv, 3 mg/kg, Dog 4, 3 mg/kg intravenous, read-out: individual IV AUC∞",3070 ng·h/mL
same,AUC(0-inf),"[1]; male, Beagle, plasma, iv, 10 mg/kg, Dog 1, 10 mg/kg intravenous, read-out: individual IV AUC∞",22500 ng·h/mL
same,AUC(0-inf),"[1]; male, Beagle, plasma, iv, 10 mg/kg, Dog 2, 10 mg/kg intravenous, read-out: individual IV AUC∞",13200 ng·h/mL
same,AUC(0-inf),"[1]; male, Beagle, plasma, iv, 10 mg/kg, Dog 3, 10 mg/kg intravenous, read-out: individual IV AUC∞",15500 ng·h/mL
same,AUC(0-inf),"[1]; male, Beagle, plasma, iv, 10 mg/kg, Dog 4, 10 mg/kg intravenous, read-out: individual IV AUC∞",14900 ng·h/mL
same,half-life,"[1]; male, Beagle, plasma, oral 3 to 30 mg/kg, range, read-out: apparent terminal half-life",4 to 7 h
same,AUC(0-inf),"[1]; male, Beagle, plasma, po, 3 mg/kg, Dog 1, 3 mg/kg oral, read-out: individual oral AUC∞",4930 ng·h/mL
same,AUC(0-inf),"[1]; male, Beagle, plasma, po, 3 mg/kg, Dog 2, 3 mg/kg oral, read-out: individual oral AUC∞",1440 ng·h/mL
same,AUC(0-inf),"[1]; male, Beagle, plasma, po, 3 mg/kg, Dog 3, 3 mg/kg oral, read-out: individual oral AUC∞",1160 ng·h/mL
same,AUC(0-inf),"[1]; male, Beagle, plasma, po, 3 mg/kg, Dog 4, 3 mg/kg oral, read-out: individual oral AUC∞",1850 ng·h/mL
same,AUC(0-inf),"[1]; male, Beagle, plasma, po, 10 mg/kg, Dog 1, 10 mg/kg oral, read-out: individual oral AUC∞",17500 ng·h/mL
same,AUC(0-inf),"[1]; male, Beagle, plasma, po, 10 mg/kg, Dog 2, 10 mg/kg oral, read-out: individual oral AUC∞",8780 ng·h/mL
same,AUC(0-inf),"[1]; male, Beagle, plasma, po, 10 mg/kg, Dog 3, 10 mg/kg oral, read-out: individual oral AUC∞",8470 ng·h/mL
same,AUC(0-inf),"[1]; male, Beagle, plasma, po, 10 mg/kg, Dog 4, 10 mg/kg oral, read-out: individual oral AUC∞",10900 ng·h/mL
same,AUC versus dose,[1]; [5],increased more than in direct proportion with the dose
same,Cmax versus dose,[1]; [5],increased roughly proportionally with the dose
same,time to maximal concentrations of HM04,"[1]; single oral administrations, post-dosing",≤ 1 h
same,HM04 plasma concentration,[2]; 1 hour,227.4 ± 52.2 ng/mL
same,HM04 plasma concentration,[2]; 4 hours,152.9 ± 56.9 ng/mL
same,HM04 plasma concentration,[2]; 8 hours,70.2 ± 41.0 ng/mL
same,HM04 plasma concentration,[2]; 24 hours,13.1 ± 13.2 ng/mL
same,AUC,"[2]; male, Beagle, plasma, 1 mg/kg intravenous, three dogs, read-out: mean AUC following intravenous administration",1130 ± 364 ng·h/mL
